Experiments:
[1] = system: in-vitro cell-based BBB model (coculture of glial cells and brain endothelial cells); type: in vitro ADME
Method: The in-vitro cell-based BBB model which is used to assess the permeability of fatty esters consists in a coculture of glial cells and brain endothelial cells. A transport buffer (150 mM NaCl, 5.2 mM KCl, 2.2 mM CaCl2, 0.2 mM MgCl2, 6 mM NaHCO3, 2.8 mM glucose and 5 mM Hepes) is added: 1500 μl to the basolateral chamber (which represents the cerebral parenchyma) and 500 μl to the apical chamber (which represents the blood). The fatty esters are introduced in the apical compartment. After 60 min, aliquots are removed from the apical and basolateral chambers for drug-concentration determination. The percentage of drug from the initial dosage that crossed BBB is calculated as follows: P (%)=[(Bf×1500)/(A0×500)]×100 where Bf is the amount of tested compounds in the basolateral compartment at the end point. A0 is the initial amount in the apical compartment at time point 0.

[2] = cited from earlier work

| Compound | permeability through the blood brain barrier [1] | translocation within brain endothelial cells or in the basal compartment [1] | oral bioavailability [2] |
| --- | --- | --- | --- |
| CCOC(=O)CN(C)C(=N)N [C2] | not | no translocation | – |
| CN(CC(=O)O)C(=N)N [creatine, 2-1(methylguanidino) acetic acid] | – | – | low |

— patent publication US10144705B2 (Commissariat a l'energie atomique et aux energies …, priority 2012, dated 2018)
